Laboratory results taken from ChEMBL document CHEMBL4689842, “EUbOPEN Chemogenomics Library wave 1” (2021).

Legend:
Format in all cases: toxicity, cell-based
[1] = tested on: HEK-293T; experiment: Incucyte cell viability with HEK293T; conditions: human, 10 µM, compound concentration 10 uM
[2] = tested on: Fibroblast; experiment: Incucyte cell viability with human fibroblast; conditions: 10 µM, compound concentration 10 uM
[3] = tested on: U2OS; experiment: Incucyte cell viability with U2OS; conditions: human, 10 µM, compound concentration 10 uM
[4] = 0 h, replicate number 1, timepoint 0 hours
[5] = 0 h, replicate number 2, timepoint 0 hours
[6] = 6 h, replicate number 1, timepoint 6 hours
[7] = 12 h, replicate number 1, timepoint 12 hours
[8] = 18 h, replicate number 1, timepoint 18 hours
[9] = 24 h, replicate number 1, timepoint 24 hours
[10] = 6 h, replicate number 2, timepoint 6 hours
[11] = 24 h, replicate number 2, timepoint 24 hours
[12] = 12 h, replicate number 2, timepoint 12 hours
[13] = 18 h, replicate number 2, timepoint 18 hours
Also: filed as whole numbers so only -1 and 0 and 1 occur.

SMILES | Growth Rate [1, 4] | Growth Rate [1, 6] | Growth Rate [1, 7] | Growth Rate [1, 8] | Growth Rate [1, 9] | Growth Rate [2, 4] | Growth Rate [2, 5] | Growth Rate [2, 6] | Growth Rate [2, 7] | Growth Rate [2, 8] | Growth Rate [2, 9] | Growth Rate [3, 6] | Growth Rate [3, 10] | Growth Rate [3, 7] | Growth Rate [3, 8] | Growth Rate [3, 9] | Growth Rate [2, 10] | Growth Rate [2, 12] | Growth Rate [2, 13] | Growth Rate [3, 4] | other results
COc1ccc(S(=O)(=O)N2c3ccc(Cl)cc3[C@](O)(c3ccccc3Cl)[C@@H]2C(=O)N2CCC[C@H]2C(N)=O)cc1OC [RELCOVAPTAN] | 1 | 0 | 0 | 0 | 0 | 0 | 1 | 0 | 0 | 0 | 0 | 1 | 0 | 0 | 0 | 0 | – | – | – | – | Growth Rate [1, 5]: 0; Growth Rate [3, 11]: 1
CC1(C)CCC(C)(C)c2cc(C(=O)Nc3ccc(C(=O)O)cc3)ccc21 | 0 | 1 | 1 | 1 | 1 | 0 | – | 1 | 1 | 1 | 1 | – | 1 | 1 | 1 | 1 | 0 | 0 | 0 | 0 | –
Nc1ncnc2c1ccn2[C@@H]1O[C@H]([C@H](O)c2ccccc2)[C@@H](O)[C@H]1O | – | 1 | – | 1 | 1 | – | 0 | – | – | 1 | 1 | 0 | – | 0 | 0 | 0 | 1 | 0 | – | 0 | Growth Rate [1, 5]: 1; Growth Rate [1, 12]: 1; Growth Rate [2, 11]: 0; Growth Rate [3, 12]: 1; Growth Rate [3, 13]: 1; Growth Rate [3, 11]: 1
CC(C)(O)c1ccccc1CC[C@@H](SCC1(CC(=O)[O-])CC1)c1cccc(/C=C/c2ccc3ccc(Cl)cc3n2)c1.[Na+] [MONTELUKAST SODIUM] | 0 | 1 | 0 | 1 | 1 | 0 | – | – | 1 | 1 | 1 | – | 0 | 1 | 1 | 1 | 0 | – | – | 0 | Growth Rate [1, 10]: 0; Growth Rate [1, 13]: 0; Growth Rate [1, 11]: 0
CC#CC(=O)N1CCC[C@H]1c1nc(-c2ccc(C(=O)Nc3ccccn3)cc2)c2c(N)nccn12 [ACALABRUTINIB] | 1 | 0 | 0 | 0 | 0 | 0 | – | 1 | 0 | 0 | 1 | 0 | – | 0 | 0 | 1 | 0 | 1 | – | 0 | Growth Rate [1, 13]: 1; Growth Rate [2, 11]: 0; Growth Rate [3, 5]: 1; Growth Rate [3, 11]: 0
O=C(NCc1ncc(C(F)(F)F)cc1Cl)c1ccc2c(c1)C1(CCS(=O)(=O)CC1)[C@@H](C1CC1)N2S(=O)(=O)c1ccc(F)cc1 [BAY-786] | 0 | 1 | 0 | 0 | 0 | 0 | 1 | 1 | 1 | 1 | 1 | – | 0 | 1 | 1 | 0 | – | – | – | 0 | Growth Rate [1, 12]: 1; Growth Rate [1, 13]: 1; Growth Rate [1, 11]: 1; Growth Rate [3, 13]: 0
COc1cc2c(cc1NS(=O)(=O)c1ccc(Br)cc1C)n(C)c(=O)n2C | 1 | 0 | 0 | 0 | 0 | 0 | – | – | 1 | 1 | 1 | 1 | – | 1 | 1 | 1 | 0 | 0 | – | 0 | Growth Rate [1, 5]: 0; Growth Rate [2, 11]: 0
CCCOc1ccc([C@H]2[C@H](C(=O)O)[C@@H](c3ccc4c(c3)OCO4)CN2CC(=O)Nc2c(CC)cccc2CC)cc1 [A-192621] | 0 | 0 | 0 | 0 | 0 | 0 | 1 | 1 | 1 | 1 | 1 | 0 | – | 0 | 0 | 0 | 0 | – | – | – | Growth Rate [1, 13]: 1; Growth Rate [3, 13]: 1; Growth Rate [3, 11]: 1
CC(C)N(CCCNC(=O)Nc1ccc(C(C)(C)C)cc1)C[C@H]1O[C@@H](n2cc(Br)c3c(N)ncnc32)[C@H](O)[C@@H]1O | – | 0 | – | – | 1 | – | 0 | – | 1 | 1 | 1 | 1 | – | 1 | 1 | 1 | – | – | – | 0 | Growth Rate [1, 12]: 0; Growth Rate [1, 13]: 1
CCNC(=O)c1cc2c(N3CCOC[C@@H]3C)ccnc2n1C | 1 | 0 | 0 | 1 | 0 | 0 | – | 1 | 1 | 1 | 1 | – | 0 | 0 | 0 | 0 | 0 | 0 | 0 | 0 | Growth Rate [1, 5]: 0; Growth Rate [1, 11]: 1; Growth Rate [3, 5]: 1; Growth Rate [3, 12]: 1; Growth Rate [3, 13]: 1; Growth Rate [3, 11]: 1
Cc1cc(-n2nc(Cc3cc(F)cc(C(F)(F)F)c3)nc2C)ccc1C(N)=O [TP-024] | 1 | 0 | 0 | 0 | 0 | 0 | 1 | 1 | 1 | 1 | 1 | 0 | 1 | 0 | 0 | 0 | 0 | 0 | 0 | – | Growth Rate [1, 5]: 0; Growth Rate [2, 11]: 0; Growth Rate [3, 12]: 1; Growth Rate [3, 13]: 1; Growth Rate [3, 11]: 1
Cc1cc([C@@H](C)Nc2ccccc2C(=O)O)c2nc(N3CCOCC3)cc(=O)n2c1 [AZD-6482] | – | 0 | 0 | 0 | 0 | – | 0 | 0 | 0 | 0 | 1 | 0 | 1 | 0 | 0 | 0 | – | – | 1 | 0 | Growth Rate [1, 12]: 1; Growth Rate [1, 11]: 1; Growth Rate [3, 12]: 1; Growth Rate [3, 13]: 1
CN1C[C@H](Nc2cnn(C)c(=O)c2Br)C[C@H](c2ccccc2)C1 | 1 | 0 | 0 | 0 | 0 | 0 | – | 0 | 1 | 1 | 1 | 0 | – | 1 | 1 | 1 | – | 0 | 0 | – | Growth Rate [1, 5]: 0; Growth Rate [2, 11]: 0; Growth Rate [3, 5]: 0
CCOC(=O)c1cc2cc(-c3cc(C(=O)NCc4ccc(C(=O)O)cc4)nn3C)ccc2[nH]1 [BI 4394] | 0 | – | 1 | 0 | 0 | 1 | 0 | 0 | 1 | 1 | 1 | 1 | – | 1 | 0 | 1 | – | 0 | – | – | Growth Rate [1, 13]: 1; Growth Rate [3, 5]: 0; Growth Rate [3, 13]: 1
O=C(O)Cn1c(C(=O)Nc2nc(-c3ccccc3Cl)cs2)cc2ccccc21 | 0 | 1 | 1 | 1 | 1 | 0 | 1 | 1 | 0 | 1 | 0 | – | 0 | 1 | 0 | 1 | 0 | – | 0 | – | Growth Rate [1, 10]: 0; Growth Rate [1, 12]: 0; Growth Rate [1, 13]: 0; Growth Rate [1, 11]: 0; Growth Rate [3, 5]: 0
Cl.Clc1cccc(COc2cncc(N3CCNCC3)n2)c1 | – | 0 | 0 | 0 | 0 | 1 | – | 1 | – | – | 1 | – | 0 | 0 | 1 | 1 | 0 | 0 | 0 | – | Growth Rate [1, 5]: 1; Growth Rate [2, 11]: 0; Growth Rate [3, 12]: 1
O=C(NCC(=O)N1CCCC1)Nc1ccc2cnccc2c1 | 0 | – | – | – | 1 | – | 0 | 0 | 0 | 0 | 0 | 1 | 0 | 1 | 1 | 1 | – | 1 | 1 | 0 | Growth Rate [1, 10]: 0; Growth Rate [1, 12]: 0; Growth Rate [1, 13]: 1; Growth Rate [1, 11]: 0; Growth Rate [2, 11]: 1; Growth Rate [3, 12]: 0
CCOc1cn(-c2ccc(F)cc2C)nc1C(=O)Nc1ccc(Oc2ccnc3cc(OC)c(OC)cc23)c(F)c1 | 0 | 1 | – | – | 1 | 1 | – | 0 | 0 | 0 | 0 | – | – | 1 | 1 | 1 | 1 | 1 | 1 | – | Growth Rate [1, 10]: 0; Growth Rate [1, 12]: 0; Growth Rate [1, 13]: 1; Growth Rate [1, 11]: 0; Growth Rate [2, 11]: 1
